# Laboratory results from PMC2630426 (Journal of medicinal chemistry, 2008).
# Where two headings read alike, the source gives them in different places.
# How the values were obtained:
# κ opioid receptor [1] = molecular target: T1, κ opioid receptor (Cavia porcellus, UniProt P41144); details: GPI, U50,488 as κ agonist, cited from earlier work
# μ opioid receptor [2] = molecular target: T2, μ opioid receptor (Rattus norvegicus, UniProt P33535); details: cited from earlier work
# κ opioid receptor [3] = molecular target: T1, κ opioid receptor; details: read-out: Ki^κ, opioid receptor binding, cited from earlier work
# δ opioid receptor [4] = molecular target: T3, δ opioid receptor (Mus musculus, UniProt P32300); details: cited from earlier work; for Ke^δ: MVD, DPDPE as δ agonist
# μ opioid receptor [5] = details: GPI, TAPP as μ agonist, cited from earlier work
# δ opioid receptor [6] = molecular target: T4, δ opioid receptor (Rattus norvegicus, UniProt P33533); details: ref Schiller et al. 4, cited from earlier work
# μ opioid receptor [7] = molecular target: T2, μ opioid receptor; assay: rat brain membrane binding assay, μ opioid receptor; details: based on the receptor binding constants (Ki values)
# κ opioid receptor [8] = molecular target: T1, κ opioid receptor; assay: GPI assay, κ opioid antagonist potency; format: biochemical, guinea pig
# δ opioid receptor [9] = molecular target: T3, δ opioid receptor; assay: MVD assay, δ opioid antagonist potency; format: biochemical
# μ opioid receptor [10] = details: cited from earlier work; for Ki: read-out: Ki^μ
# δ opioid receptor [11] = molecular target: T4, δ opioid receptor; details: cited from earlier work
# μ opioid receptor [12] = details: cited from earlier work
# δ opioid receptor [13] = molecular target: T4, δ opioid receptor; details: read-out: Ki^δ; cited from earlier work
# [14] = endomorphin-derived μ antagonists
# T1 sequence (P41144 whole entry): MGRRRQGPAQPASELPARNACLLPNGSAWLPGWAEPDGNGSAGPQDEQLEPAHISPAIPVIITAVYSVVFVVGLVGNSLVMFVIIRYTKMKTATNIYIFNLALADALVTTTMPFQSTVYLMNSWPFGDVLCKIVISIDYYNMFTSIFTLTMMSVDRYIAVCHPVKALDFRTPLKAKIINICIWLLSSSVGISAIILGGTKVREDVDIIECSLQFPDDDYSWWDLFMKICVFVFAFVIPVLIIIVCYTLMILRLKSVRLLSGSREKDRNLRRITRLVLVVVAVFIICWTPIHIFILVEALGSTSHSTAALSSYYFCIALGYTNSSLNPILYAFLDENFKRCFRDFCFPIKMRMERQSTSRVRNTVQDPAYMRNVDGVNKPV
# T4 sequence (P33533 whole entry): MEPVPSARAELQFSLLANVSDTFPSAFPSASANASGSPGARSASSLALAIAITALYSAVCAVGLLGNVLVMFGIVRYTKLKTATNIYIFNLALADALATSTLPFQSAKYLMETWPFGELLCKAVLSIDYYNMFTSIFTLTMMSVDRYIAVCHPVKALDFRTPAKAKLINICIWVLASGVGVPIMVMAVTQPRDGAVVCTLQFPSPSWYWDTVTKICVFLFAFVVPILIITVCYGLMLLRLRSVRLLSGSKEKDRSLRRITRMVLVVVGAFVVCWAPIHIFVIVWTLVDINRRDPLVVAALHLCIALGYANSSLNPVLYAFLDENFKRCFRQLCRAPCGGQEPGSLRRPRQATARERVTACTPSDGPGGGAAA
# T3 sequence (P32300 whole entry): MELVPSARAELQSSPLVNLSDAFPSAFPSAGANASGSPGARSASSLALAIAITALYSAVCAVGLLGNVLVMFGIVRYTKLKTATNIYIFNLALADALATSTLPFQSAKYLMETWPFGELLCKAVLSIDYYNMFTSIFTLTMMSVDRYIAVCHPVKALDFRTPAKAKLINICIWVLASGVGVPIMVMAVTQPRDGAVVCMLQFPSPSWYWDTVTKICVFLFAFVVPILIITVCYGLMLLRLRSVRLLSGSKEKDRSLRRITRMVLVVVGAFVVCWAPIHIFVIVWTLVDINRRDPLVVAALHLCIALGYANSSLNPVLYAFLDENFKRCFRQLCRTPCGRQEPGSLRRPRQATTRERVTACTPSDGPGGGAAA
# T2 sequence (P33535 whole entry): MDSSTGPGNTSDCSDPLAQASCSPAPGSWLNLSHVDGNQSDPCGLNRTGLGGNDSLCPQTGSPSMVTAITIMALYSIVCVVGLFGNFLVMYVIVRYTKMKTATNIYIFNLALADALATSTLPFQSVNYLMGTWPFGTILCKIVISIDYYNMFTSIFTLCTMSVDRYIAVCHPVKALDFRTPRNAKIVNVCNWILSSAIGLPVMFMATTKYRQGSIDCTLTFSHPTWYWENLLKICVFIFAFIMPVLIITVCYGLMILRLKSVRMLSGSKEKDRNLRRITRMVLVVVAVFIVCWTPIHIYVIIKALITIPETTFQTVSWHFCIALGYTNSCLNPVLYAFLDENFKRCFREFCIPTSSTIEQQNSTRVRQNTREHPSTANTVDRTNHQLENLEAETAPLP
compound,measurement,setting,value
(2S)-Mdp-c[D-Cys-Gly-Phe(pNO2)-D-Cys]NH2 (disulfide) [compound 2],Ke^κ,κ opioid receptor [1]; ref Schiller et al. 2,6.41 ± 0.18 nM
same,Ki ratio μ/δ/κ,"μ opioid receptor [2]; based on Ki values, ref Schiller et al. 2",1/2/42
same,Ki,κ opioid receptor [3]; ref Schiller et al. 2,92.8 ± 5.3 nM
same,Ke^δ,δ opioid receptor [4]; ref Schiller et al. 2,3.48 ± 0.28 nM
same,Ke^μ,μ opioid receptor [5]; ref Schiller et al. 2,1.48 ± 0.18 nM
(2S)-Mdp-c[D-Pen-Gly-Phe(pF)-Pen]-Phe-OH (disulfide) (YCGFCF) [compound 4],Ki,"δ opioid receptor [6]; read-out: Ki^δ, opioid receptor binding",2.32 ± 0.4 nM
same,Ki,"μ opioid receptor [2]; read-out: Ki^μ, opioid receptor binding, ref Schiller et al. 4",406 ± 21 nM
same,Ki,κ opioid receptor [3]; ref Schiller et al. 4,3710 ± 400 nM
"CC[C@H](C)[C@H](NC(=O)[C@H](CCCNC(=N)N)NC(=O)[C@H](CCCNC(=N)N)NC(=O)[C@H](CC(C)C)NC(=O)[C@H](Cc1ccccc1)NC(=O)CNC(=O)CNC(=O)[C@@H](C)Cc1c(C)cc(C(N)=O)cc1C)C(=O)N[C@@H](CCCNC(=N)N)C(=O)N1CCC[C@H]1C(=O)N[C@@H](CCCCN)C(N)=O [compound 5, [(2S)-Mdcp^1]Dyn A(1-11)-NH2]",Ki ratio μ/δ/κ,μ opioid receptor [7],1/1/1
same,Kb,κ opioid receptor [8],5.96 ± 0.8 nM
same,Kb,δ opioid receptor [9],843 ± 88 nM
(2S)-Mdp-c[D-Pen-Gly-Phe(pF)-Pen]-Phe-OH (disulfide) [compound 4],Ke^κ,κ opioid receptor [1]; ref Schiller et al. 4,4370 ± 860 nM
same,Ki ratio δ/μ/κ,δ opioid receptor [6]; based on Ki values,1/175/1600
same,Ke^δ,δ opioid receptor [4]; ref Schiller et al. 4,0.785 ± 0.135 nM
same,Ke ratio δ/μ/κ,"δ opioid receptor [4]; from Ke values of GPI and MVD assays, ref Schiller et al. 4",1/851/5570
same,Ke^μ,μ opioid receptor [5]; ref Schiller et al. 4,668 ± 40 nM
H-D-Phe-c[Cys-Tyr-D-Trp-Orn-Thr-Pen]-Thr-NH2 [CTOP],IC50,"μ opioid receptor [10]; read-out: IC50^μ, somatostatin-derived μ opioid antagonist",2.8 nM
H-Dmt-Sar-Phe-D-Nal-NH2,Ke^δ,δ opioid receptor [11],305 nM
same,Ke^μ,μ opioid receptor [12],2.34 nM
"[Dmt^1,D-2-Nal^4]endomorphin-1 [antanal-1]",Ki,μ opioid receptor [10]; [14],2.38 nM
[(2S)-Mdp^1]Dyn A(1-11)-NH2 [compound 6],Ke^κ,κ opioid receptor [1]; ref Lu et al. 3,3.92 ± 0.65 nM
same,Ke^δ,δ opioid receptor [4]; ref Lu et al. 3,3320 ± 520 nM
same,Ke^μ,μ opioid receptor [5]; ref Lu et al. 3,925 ± 94 nM
"[Dmt^1,D-2-Nal^4]endomorphin-2 [antanal-2]",Ki,μ opioid receptor [10]; [14],1.52 nM
"Dhp-c[N^ε,N^β-carbonyl-D-Lys^2,Dap^5]enkephalinamide",Ki,δ opioid receptor [13],273 nM
same,Ki,μ opioid receptor [10],15.5 nM
